In patent publication US20230406840A1, “N-(2-(3-CYANO-2-AZABICYCLO[3.1.0]HEXAN-2-YL)-2-OXOETHYL)QUINOLINE-4-CARBOXAMIDES” (AstraZeneca AB, priority 2022, published 2023):
Values after ≈ are worked out from the molar mass of the structure shown.

Key:
Human Hepatocytes (hHep) = experiment: Metabolic stability in human hepatocytes (hHep); assay type: in vitro ADME
Protocol: Metabolic stability in human hepatocytes was measured as described in Xenobiotica 2010, 40, 637.

FAP Human Plasma = FAP Human Plasma (Homo sapiens (Human), UniProt Q12884); experiment: FAP plasma inhibition assay, human plasma; assay type: biochemical; details: human plasma dilution 1:40, Ala-Pro-AMC 75 μM; n = 1
Protocol: (§1) This assay was adapted from the method described in Example 53 for detection of FAP target engagement enzyme activity in plasma. Plasma (anticoagulant K2EDTA) was used as the enzyme source: Human plasma (Pooled from AZ Biobank) and Mouse plasma (AZ AST Biobank). 384-Well black fluotrack PS plates (Greiner 781076) were used. 20 μL diluted plasma (Human plasma dilution 1:40, Mouse plasma dilution 1:67) in buffer (PBS, 0.1% BSA) was added to 0.6 μL compounds (in DMSO). Compounds were tested using 10 CR, 3-fold dilution series from 500 nM FAC. Two replicates for each assay point were run on the same plate. A fluorescence blank read was taken before substrate addition. Substrate, Ala-Pro-AMC (ARI-3144) stock solution (20 mM in DMSO) was diluted in buffer (PBS, 0.1% BSA) to 150 μM concentration and 20 μL added giving 75 μM FAC. Plates were incubated for 40 min at rt in the dark. The plates were read on a Beckman Paradigm® reader with excitation 360 nm and emission 465 nm. Data were analyzed in Excel (IDBS XLfit Add-In) using a one site dose response model (4-parameter logistic fit). […] Raw data signals were normalized using 1.5% DMSO in diluted plasma as 0% control and 1.5% DMSO in buffer (no plasma) as 100% inhibitor control.

[1] = molecular target: human Fibroblast activation protein alpha (hFAP) (Homo sapiens (Human), UniProt Q12884); experiment: hFAP inhibition assay (tight binders); assay type: biochemical; details: tight-binder format, Ala-Pro-AMC 20 μM, 2.5 h incubation; n = 1 or geometric mean (n = 5-10)
Protocol: Data were analyzed in Genedata Screener®.

[2] = molecular target: Prolyl Oligopeptidase (hPREP) (Homo sapiens (Human), UniProt P48147); experiment: hPREP inhibition assay; assay type: biochemical; details: hPREP 0.6 nM, Z-Gly-Pro-amino-methylcoumarin 50 μM; read-out: PREP IC50
Protocol: Compounds were tested in a biochemical inhibition assay using Prolyl endopeptidase, Prolyl Oligopeptidase (hPREP) enzyme at 0.6 nM FAC (R&D Systems, 4308-SE) and the substrate Z-Gly-Pro-amino-methylcoumarin (Bachem, I-1145) at 50 μM FAC. 384 Low volume black plates (Greiner #784076) were used. […] 4 μL, 100 μM substrate solution (25 mM Tris HCl, 250 mM NaCl, 0.01% Triton X-100, 5 mM Glutathione, pH 7.5) was added to each well. Plates were centrifuged at 1000 rpm and incubated for 20 min at rt in dark. […] Data were analyzed in Genedata Screener®.

FAP Mouse Plasma = FAP Mouse Plasma (Mus musculus (Mouse), UniProt P97321); experiment: FAP plasma inhibition assay, mouse plasma; assay type: biochemical; details: mouse plasma dilution 1:67, Ala-Pro-AMC 75 μM; n = 1
Protocol: as §1

[3] = Metabolic stability in human liver microsomes (HLM); assay type: in vitro ADME
Protocol: Metabolic stability in HLM was measured as described in J Comput Aided Mol Des 2015, 29, 795.

Kinetic solubility = assay type: physicochemical; details: kinetic from dmso stock
Protocol: Kinetic solubility was measured as described in Comput Aided Mol Des 2015, 29, 795.

Rat Hepatocytes (rHep) = experiment: Metabolic stability in rat hepatocytes (rHep); assay type: in vitro ADME
Protocol: Metabolic stability in rat hepatocytes was measured as described in J Comput Aided Mol Des 2015, 29, 795.

hFAP = hFAP (Homo sapiens (Human), UniProt Q12884);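 further: fluorescence read after incubating enzyme with substrate at room temperature, IC50 fitted from percent inhibition against log concentration with a one-site model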
[4] = molecular target: FAP enzyme activity in mouse plasma (Mus musculus (Mouse), UniProt P97321); experiment: FAP target engagement enzyme activity in mouse plasma after oral dosing; details: male C57Bl/6 mice, single oral dose 3 or 10 mg/kg; estimated from plasma exposure vs FAP activity, Imax fixed to 1; read-out: In vivo Mouse IC50
Protocol: The effect of test compound on FAP enzyme activity in mouse plasma was evaluated in an enzymatic assay using the Fibroblast Activation Protein alpha (FAP) specific fluorogenic substrate dipeptide-Coumarin, Ala-Pro-AMC, (ARI-3144). In this assay, FAP cleaves Ala-Pro-AMC to release free AMC which is measured as a fluorescent signal that correlates with enzyme activity.
Male C57Bl/6 mice (Charles River, Germany), 8 weeks of age, were single housed in a temperature-controlled room with a 12-hour light/dark cycle (06:00-18:00 light). The mice had ad libitum access to water and rodent chow diet (R70, Lactamin, Kimstad, Sweden), and were acclimated for 5 days upon arrival. After acclimation, all mice received a single oral dose of test compound (3 or 10 mg/kg). Blood samples for whole blood compound exposure measurements were taken at 0.25, 0.5, 1, 2, 4, 8 and 24 h post oral dosing. Samples were collected in EDTA capillary tubes (20 μL, K2E, REF 19.447) and were transferred to a 96-deep well plate (NUNC, Thermo Discher Scientific) and stored at −20° C. until further analyses were performed. […]
Recombinant human FAP (PB-17-1837, construct PL-17-0278, cd33-FAP (27-757)-6His, Mw85926 Da) was used as a standard for this assay. […] The plates were read on a Beckman Paradigm reader with excitation 360 nm and emission 465 nm. Fluorescence measurements were performed with kinetic read every 5 minutes for 60 min at room temperature. Data were analyzed in Excel (IDBS XLfit Add-In) using a Linear Regression (y=k*x+m) model to prepare a human recombinant FAP standard curve.
On the day of the assay, plasma was diluted (1:2) to 20 μL volume in buffer (PBS, 0.1% BSA) and 7.5 μL was transferred to the assay plate (384-well black, fluotrack PS, Greiner 781076). […] The plates were read on a Beckman Paradigm reader with excitation 360 nm and emission 465 nm. Fluorescence measurements were performed with kinetic read every 5 minutes for 60 minutes at room temperature. As noted above, FAP cleaves Ala-Pro-AMC to release free AMC which is measured as a fluorescent signal. […]

[5] = Caco-2 AB intrinsic permeability; assay type: in vitro ADME; details: human, A to B, read-out: Caco2 AB Intrinsic Papp
Protocol: (§2) Caco-2 cell permeability was measured as described in Mol/Pharm 2017, 14, 1601.

[6] = Caco-2 bidirectional (ABBA) permeability; assay type: in vitro ADME; details: human
Protocol: as §2

Chain of FAP Mouse Plasma (P97321 24-761 limits assumed): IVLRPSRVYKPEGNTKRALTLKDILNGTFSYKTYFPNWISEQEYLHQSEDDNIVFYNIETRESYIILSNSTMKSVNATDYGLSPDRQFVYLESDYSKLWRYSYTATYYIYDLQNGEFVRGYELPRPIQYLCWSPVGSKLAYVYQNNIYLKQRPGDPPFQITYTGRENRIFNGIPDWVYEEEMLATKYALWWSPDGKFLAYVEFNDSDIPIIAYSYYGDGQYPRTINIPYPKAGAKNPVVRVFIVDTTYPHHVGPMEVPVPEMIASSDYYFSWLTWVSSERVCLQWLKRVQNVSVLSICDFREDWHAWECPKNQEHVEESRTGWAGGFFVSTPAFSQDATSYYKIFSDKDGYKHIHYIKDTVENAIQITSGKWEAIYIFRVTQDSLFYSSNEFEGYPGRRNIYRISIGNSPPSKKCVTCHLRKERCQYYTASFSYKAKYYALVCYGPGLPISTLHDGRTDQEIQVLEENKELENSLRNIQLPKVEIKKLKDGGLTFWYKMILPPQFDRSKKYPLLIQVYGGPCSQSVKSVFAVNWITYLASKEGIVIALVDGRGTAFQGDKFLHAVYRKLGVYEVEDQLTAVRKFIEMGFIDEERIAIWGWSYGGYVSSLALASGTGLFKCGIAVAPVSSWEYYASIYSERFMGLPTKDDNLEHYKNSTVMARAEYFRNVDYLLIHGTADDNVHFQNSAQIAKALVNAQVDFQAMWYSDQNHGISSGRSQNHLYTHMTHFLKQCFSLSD
Chain of Prolyl Oligopeptidase (hPREP) (P48147 whole entry): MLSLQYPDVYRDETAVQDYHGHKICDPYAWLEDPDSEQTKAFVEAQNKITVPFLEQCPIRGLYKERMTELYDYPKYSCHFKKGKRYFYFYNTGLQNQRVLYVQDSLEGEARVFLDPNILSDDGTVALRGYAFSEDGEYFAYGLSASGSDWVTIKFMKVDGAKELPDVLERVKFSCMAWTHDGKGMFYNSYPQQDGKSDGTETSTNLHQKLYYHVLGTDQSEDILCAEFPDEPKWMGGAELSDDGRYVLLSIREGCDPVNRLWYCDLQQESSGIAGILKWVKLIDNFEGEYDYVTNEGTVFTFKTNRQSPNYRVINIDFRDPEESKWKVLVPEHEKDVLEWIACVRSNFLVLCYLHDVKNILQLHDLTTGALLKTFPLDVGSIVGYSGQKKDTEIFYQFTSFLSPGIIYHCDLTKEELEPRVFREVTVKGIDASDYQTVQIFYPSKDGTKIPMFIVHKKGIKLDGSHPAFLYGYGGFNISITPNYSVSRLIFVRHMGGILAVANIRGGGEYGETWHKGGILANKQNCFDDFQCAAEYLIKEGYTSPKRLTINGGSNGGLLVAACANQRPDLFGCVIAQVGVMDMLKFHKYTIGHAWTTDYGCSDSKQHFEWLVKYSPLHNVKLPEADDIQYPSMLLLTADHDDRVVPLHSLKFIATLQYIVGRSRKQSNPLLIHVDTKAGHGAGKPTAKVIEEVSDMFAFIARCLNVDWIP
Chain of FAP Human Plasma (Q12884 24-760 limits assumed): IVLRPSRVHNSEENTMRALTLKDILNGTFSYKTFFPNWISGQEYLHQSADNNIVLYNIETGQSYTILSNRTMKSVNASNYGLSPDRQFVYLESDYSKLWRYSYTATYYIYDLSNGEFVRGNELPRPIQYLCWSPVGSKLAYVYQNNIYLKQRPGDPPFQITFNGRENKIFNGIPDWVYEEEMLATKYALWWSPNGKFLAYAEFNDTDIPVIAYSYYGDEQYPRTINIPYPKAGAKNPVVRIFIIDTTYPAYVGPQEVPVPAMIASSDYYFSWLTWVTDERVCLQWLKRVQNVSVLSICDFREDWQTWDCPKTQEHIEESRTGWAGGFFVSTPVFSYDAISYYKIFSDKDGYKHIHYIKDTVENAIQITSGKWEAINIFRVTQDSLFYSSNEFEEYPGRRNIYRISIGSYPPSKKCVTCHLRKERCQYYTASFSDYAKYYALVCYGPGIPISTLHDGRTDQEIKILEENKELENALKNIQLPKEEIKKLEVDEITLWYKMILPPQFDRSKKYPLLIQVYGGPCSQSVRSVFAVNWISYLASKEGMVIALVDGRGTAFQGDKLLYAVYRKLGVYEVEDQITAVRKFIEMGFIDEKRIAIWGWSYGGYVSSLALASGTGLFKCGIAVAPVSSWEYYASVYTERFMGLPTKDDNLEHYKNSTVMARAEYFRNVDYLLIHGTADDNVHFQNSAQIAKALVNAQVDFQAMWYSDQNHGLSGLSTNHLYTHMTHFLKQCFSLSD
Chain of hFAP (Q12884 38-760): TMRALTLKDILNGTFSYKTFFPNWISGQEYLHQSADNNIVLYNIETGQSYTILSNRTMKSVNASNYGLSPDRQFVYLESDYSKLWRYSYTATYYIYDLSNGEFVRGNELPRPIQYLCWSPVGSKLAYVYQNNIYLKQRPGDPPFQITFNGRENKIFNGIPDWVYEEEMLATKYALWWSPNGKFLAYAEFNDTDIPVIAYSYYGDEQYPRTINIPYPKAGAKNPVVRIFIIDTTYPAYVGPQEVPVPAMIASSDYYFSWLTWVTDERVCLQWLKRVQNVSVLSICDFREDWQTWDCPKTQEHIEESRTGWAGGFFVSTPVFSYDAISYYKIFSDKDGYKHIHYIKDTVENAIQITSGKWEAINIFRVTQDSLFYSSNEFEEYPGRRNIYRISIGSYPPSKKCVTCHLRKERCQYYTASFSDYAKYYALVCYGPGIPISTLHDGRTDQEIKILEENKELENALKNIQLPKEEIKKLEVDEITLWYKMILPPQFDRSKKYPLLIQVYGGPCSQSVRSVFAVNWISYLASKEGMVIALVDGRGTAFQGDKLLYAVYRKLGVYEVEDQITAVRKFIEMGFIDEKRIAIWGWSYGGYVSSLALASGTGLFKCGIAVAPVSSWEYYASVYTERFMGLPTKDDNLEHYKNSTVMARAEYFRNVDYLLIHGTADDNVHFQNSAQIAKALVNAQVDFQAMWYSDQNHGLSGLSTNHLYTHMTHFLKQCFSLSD
Chain of human Fibroblast activation protein alpha (hFAP) (Q12884 38-760): as above
Chain of FAP enzyme activity in mouse plasma (P97321 24-761 limits assumed): as the sequence (P97321 24-761 limits assumed) above

## N#C[C@@H]1C[C@@H]2C[C@@H]2N1C(=O)CNC(=O)c1ccnc2ccc(Br)cc12 [Example 1, 6-Bromo-N-(2-((1S,3S,5S)-3-cyano-2-azabicyclo[3.1.0]hexan-2-yl)-2-oxoethyl)quinoline-4-carboxamide]
Human Hepatocytes (hHep)
  hHep CLint: 2.8 μL/min/1E6
FAP Human Plasma
  IC50: 0.023 µM
[1]
  IC50: 0.00044 µM
[2]
  IC50: 27 µM
FAP Mouse Plasma
  IC50: 0.02 µM
[3]
  microsomal CLint: 9.7 µL/min/mg
Kinetic solubility
  solubility: 290 µM (≈ 116 µg/mL)
Rat Hepatocytes (rHep)
  rHeps CLint: 3.8 μL/min/1E6
hFAP
  IC50: 0.002 µM

## N#C[C@@H]1C[C@@H]2C[C@@H]2N1C(=O)CNC(=O)c1ccnc2cc(Cl)ccc12 [Example 2, 7-Chloro-N-(2-((1S,3S,5S)-3-cyano-2-azabicyclo[3.1.0]hexan-2-yl)-2-oxoethyl)quinoline-4-carboxamide]
[4]
  IC50: 0.021 µM
FAP Human Plasma
  IC50: 0.013 µM
[1]
  IC50: 0.00018 µM
[2]
  IC50: > 50 µM
FAP Mouse Plasma
  IC50: 0.0071 µM
hFAP
  IC50: 0.00065 µM

## N#C[C@@H]1C[C@@H]2C[C@@H]2N1C(=O)CNC(=O)c1ccnc2cc(Br)ccc12 [Example 3, 7-Bromo-N-(2-((1S,3S,5S)-3-cyano-2-azabicyclo[3.1.0]hexan-2-yl)-2-oxoethyl)quinoline-4-carboxamide]
Human Hepatocytes (hHep)
  hHep CLint: <1 μL/min/1E6
FAP Human Plasma
  IC50: 0.015 µM
[1]
  IC50: 0.00012 µM
[2]
  IC50: > 50 µM
FAP Mouse Plasma
  IC50: 0.015 µM
[3]
  microsomal CLint: < 3 µL/min/mg
Kinetic solubility
  solubility: 210 µM (≈ 83.8 µg/mL)
Rat Hepatocytes (rHep)
  rHeps CLint: 4.5 μL/min/1E6
hFAP
  IC50: 0.00068 µM

## Cc1ccc2nccc(C(=O)NCC(=O)N3[C@H](C#N)C[C@@H]4C[C@@H]43)c2c1 [Example 9, N-(2-((1S,3S,5S)-3-Cyano-2-azabicyclo[3.1.0]hexan-2-yl)-2-oxoethyl)-6-methylquinoline-4-carboxamide]
FAP Human Plasma
  IC50: 0.0075 µM
[1]
  IC50: 0.00056 µM
[2]
  IC50: > 50 µM
FAP Mouse Plasma
  IC50: 0.0027 µM
hFAP
  IC50: < 0.0028 µM

## N#C[C@@H]1C[C@@H]2C[C@@H]2N1C(=O)CNC(=O)c1ccnc2ccc(C(F)(F)F)cc12 [Example 10, N-(2-((1S,3S,5S)-3-Cyano-2-azabicyclo[3.1.0]hexan-2-yl)-2-oxoethyl)-6-(trifluoromethyl)quinoline-4-carboxamide]
Human Hepatocytes (hHep)
  hHep CLint: 7 μL/min/1E6
FAP Human Plasma
  IC50: 0.034 µM
[2]
  IC50: > 50 µM
FAP Mouse Plasma
  IC50: 0.015 µM
[3]
  microsomal CLint: 37 µL/min/mg
Kinetic solubility
  solubility: 140 µM (≈ 54.4 µg/mL)
Rat Hepatocytes (rHep)
  rHeps CLint: 6.7 μL/min/1E6
hFAP
  IC50: 0.0048 µM

## Cc1ccc2c(C(=O)NCC(=O)N3[C@H](C#N)C[C@@H]4C[C@@H]43)cc(C)nc2c1 [Example 31, N-(2-((1S,3S,5S)-3-Cyano-2-azabicyclo[3.1.0]hexan-2-yl)-2-oxoethyl)-2,7-dimethylquinoline-4-carboxamide]
Human Hepatocytes (hHep)
  hHep CLint: <1 μL/min/1E6
FAP Human Plasma
  IC50: 0.32 µM
[1]
  IC50: 0.011 µM
[2]
  IC50: 38 µM
[3]
  microsomal CLint: 6.2 µL/min/mg
Kinetic solubility
  solubility: > 1000 µM
Rat Hepatocytes (rHep)
  rHeps CLint: 1.6 μL/min/1E6
[5]
  Papp: 56 ×10⁻⁶ cm/s
hFAP
  IC50: 0.031 µM

## N#C[C@@H]1C[C@@H]2C[C@@H]2N1C(=O)CNC(=O)c1ccnc2cc(C3CC3)ccc12 [Example 37, N-(2-((1S,3S,5S)-3-Cyano-2-azabicyclo[3.1.0]hexan-2-yl)-2-oxoethyl)-7-cyclopropylquinoline-4-carboxamide]
[6]; A to B, read-out: Caco2 Bidirectional (ABBA) A to B Papp
  Papp A→B: 18 ×10⁻⁶ cm/s
[6]; B to A, read-out: Caco2 Bidirectional (ABBA) B to A Papp
  Papp B→A: 33 ×10⁻⁶ cm/s
[6]; read-out: Caco2 Bidirectional (ABBA) Efflux Ratio
  efflux ratio: 1.8
Human Hepatocytes (hHep)
  hHep CLint: 2.3 μL/min/1E6
FAP Human Plasma
  IC50: 0.0055 µM
[1]
  IC50: 0.0003 µM
[2]
  IC50: > 50 µM
FAP Mouse Plasma
  IC50: 0.0024 µM
[3]
  microsomal CLint: 8.4 µL/min/mg
Kinetic solubility
  solubility: 810 µM (≈ 292 µg/mL)
Rat Hepatocytes (rHep)
  rHeps CLint: 49 μL/min/1E6
[5]
  Papp: 29 ×10⁻⁶ cm/s
hFAP
  IC50: < 0.0017 µM

## COc1ccc2c(C(=O)NCC(=O)N3[C@H](C#N)C[C@@H]4C[C@@H]43)cc(C)nc2c1 [Example 41, N-(2-((1S,3S,5S)-3-Cyano-2-azabicyclo[3.1.0]hexan-2-yl)-2-oxoethyl)-7-methoxy-2-methylquinoline-4-carboxamide]
Human Hepatocytes (hHep)
  hHep CLint: <1 μL/min/1E6
FAP Human Plasma
  IC50: 0.38 µM
FAP Mouse Plasma
  IC50: 0.3 µM
[3]
  microsomal CLint: < 3 µL/min/mg
Kinetic solubility
  solubility: 120 µM (≈ 43.7 µg/mL)
Rat Hepatocytes (rHep)
  rHeps CLint: <1 μL/min/1E6
hFAP
  IC50: 0.038 µM
